Test results as given in patent US20260103474A1, “NOVEL COMPOUNDS FOR THE DIAGNOSIS OF TDP-43 PROTEINOPATHIES” (AC IMMUNE SA, priority 2022, published 2026).
Where two headings read alike, the source gives them in different places.

Tests used:
[1] = biological target: T1, Human brain derived TDP-43 aggregates (Homo sapiens, UniProt Q13148); test: Micro-radiobinding competition assay for binding affinity to TDP-43; conditions: for Human brain derived TDP-43 aggregates Mean % competition at 250 nM: non-radiolabeled compound at 250 nM vs tritiated reference ligand at 40 nM; for Human brain derived TDP-43 aggregates Mean % competition at 250 nM / Human brain derived TDP-43 aggregates Mean % competition at 2 μM: FTD sarkosyl-insoluble brain extracts; for Human brain derived TDP-43 aggregates Mean % competition at 2 μM: non-radiolabeled compound at 2 μM vs tritiated reference ligand at 40 nM; for Ki: 0.24 nM to 2 μM vs tritiated reference ligand at 40 nM
T1 construct: Human FTD sarkosyl-insoluble brain extracts were spotted onto microarray slides
T1 sequence (Q13148 261-414 limits assumed): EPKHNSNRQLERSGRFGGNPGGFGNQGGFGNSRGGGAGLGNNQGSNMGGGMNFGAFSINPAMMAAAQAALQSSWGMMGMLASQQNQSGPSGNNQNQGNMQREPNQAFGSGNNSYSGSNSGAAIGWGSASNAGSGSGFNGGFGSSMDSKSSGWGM
Procedure: Human brain extracts were prepared as described in Laferriere et al., 2019, Nature Neurosc. A sample of brain tissue (frontal or temporal cortex) was homogenized at 1:4 (w/v) ratio in the homogenization-solubilization (HS) buffer at 4° C. using tissue homogenizer (Precellys) with CKmix homogenization tubes. The following sequence was used for homogenization: 3 cycles of 30 seconds at 5000 rpm (with 15 seconds pause between each cycle). Homogenized samples were aliquoted and stored at −80° C. in 1.5 mL low protein binding tubes.
Brain homogenates were thawed on ice and resuspended in HS buffer to obtain a final concentration of 2% sarkosyl, 1 unit/μL Benzonase and 1 mM MgCl2. The samples were then incubated at 37° C. under constant shaking at 600 rpm on a thermomixer for 45 minutes (min). The supernatants were collected in a new tube (sarkosyl-soluble fraction, S1). The pellet was resuspended in 1000 μL of myelin floatation buffer and centrifuged at 20,000 g for 60 min at 4° C. The supernatant was carefully removed to remove all the floating lipids. This step was repeated if all the lipids could not be removed in a single step. The pellet was subsequently washed with Phosphate-Buffered Saline (PBS) and centrifuged for 30 min at 20,000 g at 4° C. The final pellet was resuspended in 200 μL PBS and stored at −80° C. (sarkosyl-insoluble fraction). The samples were analyzed by immunoblotting in denaturing conditions.
Human FTD sarkosyl-insoluble brain extracts were spotted onto microarray slides. The slides were incubated with a tritiated reference ligand at 40 nM, and the example compounds (non-radiolabeled) at 2 μM and 250 nM. […] After incubation, slides were washed and scanned by a real-time autoradiography system (BeaQuant, ai4R). Quantification of the signal was performed by using the Beamage image analysis software (ai4R). Non-specific signal was determined with an excess of non-radiolabeled reference compound (2 μM) and specific binding was calculated by subtracting the non-specific signal from the total signal. Competition was calculated as percent, where 0% was defined as the specific binding in the presence of vehicle and 100% as the values obtained in the presence of excess of the non-radiolabeled reference compound. Ki values were calculated in GraphPad Prism8 by applying a nonlinear regression curve fit using a one site, specific binding model. Measurements were performed with at least two technical replicates in the two-concentration competition experiment and with one technical replicate in the experiments including a range of concentrations. For compounds tested in more than one experiment, the mean of the replicates or Ki values in independent experiments is reported.

[2] = biological target: T2, Abeta (Homo sapiens, UniProt P05067); test: Radiobinding competition assay using Abeta reference compound on AD insoluble fraction of brain homogenates; assay type: binding; conditions: against [3H]Abeta reference compound
T2 construct: an AD donor with confirmed burden of Tau and Abeta aggregates; from tissue; host or cells: frontal cortex of a human AD donor, Triton/sucrose-insoluble fraction
T2 sequence (P05067 672-713 limits assumed): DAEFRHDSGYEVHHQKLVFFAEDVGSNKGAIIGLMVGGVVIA
Procedure: Approximately 4 g of frozen tissue block from frontal cortex brain region was used from an AD donor with confirmed burden of Tau and Abeta aggregates. The tissue was homogenized in three volumes (1:3 w/v) of high salt buffer (50 mM Tris-HCl pH 7.5, 750 mM NaCl, 5 mM EDTA) supplemented with protease inhibitors (Complete; Roche 11697498001) at 4° C. with a glass Dounce homogenizer. The homogenate was transferred into polycarbonate centrifuge bottles (16×76 mm; Beckman 355603) and centrifuged at 100,000×g (38,000 RPM) in an ultracentrifuge (Beckman, XL100K) for 60 minutes at 4° C. using a pre-cooled 70.1 rotor (Beckman, 342184). Pellets were resuspended in high salt buffer supplemented with 1% Triton X-100 and homogenized at 4° C. with a syringe. The homogenates were centrifuged again at 100,000×g (38,000 RPM, 70.1 rotor) for 60 minutes at 4° C. Pellets were resuspended in high salt buffer supplemented with 1% Triton X-100 and 1 M sucrose and homogenized at 4° C. with a syringe. The homogenates were centrifuged at 100,000×g (38,000 RPM, 70.1 rotor) for 60 minutes at 4° C. The resulting pellets containing insoluble fraction were resuspended in PBS (1:2 w/v relative to starting tissue weight), aliquoted and stored at −80° C. until use.
The reaction was performed in assay buffer (50 mM Tris pH 7.5 in 0.9% NaCl, 0.1% BSA) and incubated for two hours at room temperature (RT). Samples in duplicate were then filtered under vacuum in GF/C filter plates (PerkinElmer) to trap the aggregates with the bound radioligand and washed with 100 μL ice-cold 50 mM Tris pH 7.5. The GF/C filters were then dried and scintillation liquid (UltimateGold, PerkinElmer, 6013151) was added in each well. The filters were analyzed on a Microbeta2 scintillation counter (PerkinElmer). Values for the maximal signal were obtained in the absence of non-radiolabeled compound, while 100% displacement was obtained using 1 μM of non-radiolabeled reference compound. Ki values were calculated by nonlinear regression, using a one site—fit Ki model in Prism V7 (GraphPad).

[3] = cells printed in μM, read-out: Ki on AD brain homogenates
[4] = read-out: Ki (nM) on AD brain homogenates

SMILES	Human brain derived TDP-43 aggregates Mean % competition at 250 nM [1] [%]	Human brain derived TDP-43 aggregates Mean % competition at 2 μM [1] [%]	Ki [1] [nM]	Ki [2, 3] [µM]	Ki [2, 4] [µM]
Cn1cc(N2CCc3nc(-c4ccc(N5CC[C@@H](F)C5)nc4F)sc3C2=O)cn1 [Compound 11]	73	102			
O=C1c2sc(-c3ccc(N4CC[C@@H](F)C4)nc3F)nc2CCN1c1ccncc1 [Example 7]	51	73	51	> 1	
O=C1c2sc(-c3ccc(N4CCC[C@H](F)C4)nc3F)nc2CCN1c1ncccn1 [Compound 35]	55	70	49	> 1	
Nc1cc(N2CCc3nc(-c4ccc(N5CCCC5)nc4F)sc3C2=O)ccc1F [Compound 10, 5-(3-amino-4-fluorophenyl)-2-(2-fluoro-6-(pyrrolidin-1-yl)pyridin-3-yl)-6,7-dihydrothiazolo[5,4-c]pyridin-4(5H)-one]	52	75	16		0.35
O=C1c2sc(-c3ccc(N4CC[C@@H](F)C4)nc3F)nc2CCN1c1cscn1 [Compound 33]	60	86	36		
O=C1c2sc(-c3ccc(N4CC[C@H](F)C4)nc3F)nc2CCN1c1ncccn1 [Compound 16]	67	96	5	> 1	
O=C1c2sc(-c3ccc(N4CCCC4)nc3F)nc2CCN1c1cccnc1 [Compound 9, 2-(2-fluoro-6-(pyrrolidin-1-yl)pyridin-3-yl)-5-(pyridin-3-yl)-6,7-dihydrothiazolo[5,4-c]pyridin-4(5H)-one]	62	75	31	> 1	
O=C1c2sc(-c3ccc(N4CC[C@@H](F)C4)nc3F)nc2CCN1c1cncnc1 [Compound 13]	57	84		> 1	
O=C1c2sc(-c3ccc(N4CC[C@@H](F)C4)nc3F)nc2CCN1c1cnsc1 [Compound 22]	68	100	54		
Nc1cc(N2CCc3nc(-c4ccc(N5CCC[C@H](F)C5)nc4F)sc3C2=O)ccn1 [Compound 29]	45	86	43	> 1	
N#Cc1c(N)cccc1N1CCc2nc(-c3ccc(N4CC[C@H](F)C4)nc3F)sc2C1=O [Compound 32]	65	80	4	> 1	
O=C1c2sc(-c3ccc(N4CCCC4)nc3F)nc2CCN1c1ccncc1 [Compound 14]	48	34			
O=C1c2sc(-c3ccc(N4CCC[C@H](F)C4)nc3F)nc2CCN1c1cnsc1 [Compound 27, (S)-2-(2-fluoro-6-(3-fluoropiperidin-1-yl)pyridin-3-yl)-5-(isothiazol-4-yl)-6,7-dihydrothiazolo[5,4-c]pyridin-4(5H)-one]	57	94	48	> 1	
O=C1c2sc(-c3ccc(N4CCCCC4)nc3F)nc2CCN1c1ccnc(F)c1 [Compound 23, 2-(2-fluoro-6-(piperidin-1-yl)pyridin-3-yl)-5-(2-fluoropyridin-4-yl)-6,7-dihydrothiazolo[5,4-c]pyridin-4(5H)-one]	73	104	25	> 1	
O=C1c2sc(-c3ccc(N4CCCC4)nc3F)nc2CCN1c1ccc(F)nc1 [Compound 12]	56	59			
Nc1cc(N2CCc3nc(-c4ccc(N5CC[C@H](F)C5)nc4F)sc3C2=O)ccn1 [Compound 26]	55	91	13		0.318
O=C1c2sc(-c3ccc(N4CC[C@H](F)C4)nc3F)nc2CCN1c1ccncn1 [Compound 37]	80	70	25	> 1	
Cn1cc(N2CCc3nc(-c4ccc(N5CCCC5)nc4F)sc3C2=O)cn1 [Compound 21]	46	85	30		
N#Cc1c(N)cccc1N1CCc2nc(-c3ccc(N4CC[C@@H](F)C4)nc3F)sc2C1=O [Compound 34]	60	77	5	> 1	
O=C1c2sc(-c3ccc(N4CC[C@H](F)C4)nc3F)nc2CCN1c1ccnnc1 [Compound 36]	66	75	7		
N#Cc1c(N)cccc1N1CCc2nc(-c3ccc(N4CCC[C@@H](F)C4)nc3F)sc2C1=O [Compound 30]	66	93	7		
